Laboratory results published in patent US20260250322A1, “NEW PEPTIDES AS SELECTIVE IL-23 RECEPTOR INHIBITORS” (SANOFI, priority 2023, published 2026).
Each block holds one molecule with its values, some of them ahead of it. Numbered stars: 1 amine (or outer) side, 2 acyl side, 3 side chain; on linkers, the order of the positions; unused ones are H or OH. Bridge positions count the residues as written; N and C are the ends. Square brackets hold non-standard residues; d marks the D form. Primed or numbered codes have the meaning given here. Peptide text beside a SMILES is read from it. Phe(4-OMe) = Yme, 4-methoxy-L-phenylalanine (O-methyl-tyrosine), COc1ccc(C[C@H](N[*:1])C(=O)[*:2])cc1; Tyr(Me) = Yme = 4-methoxy-L-phenylalanine (O-methyl-tyrosine), COc1ccc(C[C@H](N[*:1])C(=O)[*:2])cc1; Tyr(Me)″ = O-methyl-tyrosine (4-methoxy-phenylalanine), COc1ccc(C[C@H](N[*:1])C(=O)[*:2])cc1; 1Nal = N[C@@H](Cc1cccc2ccccc12)C(=O)O; 2Nal = N[C@@H](Cc1ccc2ccccc2c1)C(=O)O; Agb = N=C(N)NCC[C@H](N)C(=O)O; dOrn = NCCC[C@@H](N)C(=O)O; Orn = NCCC[C@H](N)C(=O)O; Thp = NC1(C(=O)O)CCOCC1; Aib = CC(C)(N)C(=O)O; Ahx = NCCCCCC(=O)O

What was measured:
[1] = Chemical stability (relative purity loss) of peptide compounds in buffer formulations; format: physicochemical
Procedure: Purity of a compound batch was determined through UHPLC/MS prior to chemical stability measurement using Method A.
For stability assessment, the target concentration was 300 μM pure compound. Therefore, solutions from solid samples were prepared in the following buffer systems with a concentration of ~300 µM compound based on the previously determined % purity. The solid samples were obtained by drying down aliquots of a freshly prepared acetonitrile stock solution using a THERMO SPEEDVAC vacuum centrifuge. The dry down time was 3 hours.
The following buffer systems were applied: • Solubility buffer system A) 100 mM phosphate buffer pH 7.4. • Solubility buffer system B) 100 mM phosphate buffer pH 6.5. • Solubility buffer system C) 100 mM HCl pH 1.2.
Prepared solutions were filtered through […] pore size and filled into sterilized glass containers under laminar flow conditions.
[…] After this time course, the samples were centrifuged for 15 min at 2500 RCF. Then 1.5 μl of the undiluted supernatant were analysed with UHPLC-UV.
The chemical stability was rated through the relative loss of purity calculated by the equation:
[(purity after 0 hours at 37° C.)(purity after 24 hours at 37° C.)]/(purity after 0 hours at 37° C.)]*100%.
The purity is calculated as [(peak area peptide)/(total peak area)]*100%.
Buffer composition: 100 mM HCl pH 1.2, 100 mM phosphate buffer pH 6.5, 100 mM phosphate buffer pH 7.4

[2] = target: T1, human IL-23R (Homo sapiens, UniProt Q5VWK5); assay: Human ELISA IL-23/IL-23R binding inhibition; conditions: human IL-23 coated, recombinant human IL-23R-Fc chimera
T1 sequence (Q5VWK5 24-355 limits assumed): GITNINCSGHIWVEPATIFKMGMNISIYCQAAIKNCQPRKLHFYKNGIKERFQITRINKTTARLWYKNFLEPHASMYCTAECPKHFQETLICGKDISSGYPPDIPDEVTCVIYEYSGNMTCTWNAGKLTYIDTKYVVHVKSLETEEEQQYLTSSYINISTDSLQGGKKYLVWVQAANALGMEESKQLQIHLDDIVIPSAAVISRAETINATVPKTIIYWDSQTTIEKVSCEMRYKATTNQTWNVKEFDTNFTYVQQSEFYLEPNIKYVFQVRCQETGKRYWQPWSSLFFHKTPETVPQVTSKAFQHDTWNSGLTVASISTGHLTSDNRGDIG
In short: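 Plates coated with human IL-23 at 1 μg/ml overnight at 4° C; serially diluted peptides added with recombinant human IL-23R-Fc at 0.1 μg/ml final, 60 min at RT. Bound receptor detected with anti-human IgG1-HRP and a fluorogenic peroxidase substrate.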

[3] = tested on: IL-23 induced STAT3 signaling; assay: Inhibition of IL-23 induced STAT3 signaling in HEK-Blue IL-23 cells (SEAP reporter); format: cell-based; conditions: human IL-23 0.25 ng/ml, read-out: Inhibition of IL-23 induced pSTAT3 (IC50 nM)
In short: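 HEK-Blue IL-23 cells (10,000/well) preincubated 60 min at 37 °C with serially diluted compound, then stimulated overnight with human IL-23 (0.25 ng/ml final). STAT3-driven SEAP in supernatant read with QUANTI-Blue after 45 min at room temperature, OD 620-655 nm; dose-response fitted.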

[4] = target: T2, recombinant human IL-23R-Fc chimera (human, UniProt Q5VWK5 24-353, limits assumed); assay: competition ELISA: coated human IL-23, IL-23R-Fc 0.1 ug/ml, peptide titrated
T2 construct: Recombinant reagent; also called interleukin-23 receptor; not shown: detected with goat anti-hu-IgG1-HRP antibody
T2 sequence (looked up): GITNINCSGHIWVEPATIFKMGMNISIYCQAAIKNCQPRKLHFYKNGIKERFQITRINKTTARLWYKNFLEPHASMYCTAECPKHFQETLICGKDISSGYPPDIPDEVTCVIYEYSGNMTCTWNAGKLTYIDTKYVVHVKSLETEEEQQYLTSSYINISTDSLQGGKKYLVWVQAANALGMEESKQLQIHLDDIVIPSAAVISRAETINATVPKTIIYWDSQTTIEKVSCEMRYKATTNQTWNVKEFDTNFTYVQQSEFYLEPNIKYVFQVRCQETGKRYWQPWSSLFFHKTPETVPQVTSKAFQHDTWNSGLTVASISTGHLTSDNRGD
Procedure: Antagonism of peptide compounds for human interleukin-23 receptor inhibitors, was determined by an ELISA assay.
A 384-well plate was coated with 50 μl/well of human IL-23 at a final concentration of 1 μg/ml and incubated overnight at 4° C. The wells were washed 3 times with 80 μl wash buffer and blocked with 80 μl blocking buffer for 60 minutes at room temperature and washed again. 20 μl of serially diluted test peptides was added to each well and subsequently 20 μl of recombinant human IL-23R-Fc chimera at final concentration of 0.1 μg/ml. The plate was incubated for 60 minutes at room temperature. After the wells were washed, bound IL-23R-Fc was detected with goat anti-hu-lgG1-HRP antibody. Signals were visualized with QuantaBlu Fluorogenic Peroxidase Substrate.

[5] = target: T3, IL-23 receptor on the surface of HEK-Blue IL-23 cells (UniProt Q5VWK5 24-629, limits assumed); assay: cell-based or functional assay
T3 sequence (looked up): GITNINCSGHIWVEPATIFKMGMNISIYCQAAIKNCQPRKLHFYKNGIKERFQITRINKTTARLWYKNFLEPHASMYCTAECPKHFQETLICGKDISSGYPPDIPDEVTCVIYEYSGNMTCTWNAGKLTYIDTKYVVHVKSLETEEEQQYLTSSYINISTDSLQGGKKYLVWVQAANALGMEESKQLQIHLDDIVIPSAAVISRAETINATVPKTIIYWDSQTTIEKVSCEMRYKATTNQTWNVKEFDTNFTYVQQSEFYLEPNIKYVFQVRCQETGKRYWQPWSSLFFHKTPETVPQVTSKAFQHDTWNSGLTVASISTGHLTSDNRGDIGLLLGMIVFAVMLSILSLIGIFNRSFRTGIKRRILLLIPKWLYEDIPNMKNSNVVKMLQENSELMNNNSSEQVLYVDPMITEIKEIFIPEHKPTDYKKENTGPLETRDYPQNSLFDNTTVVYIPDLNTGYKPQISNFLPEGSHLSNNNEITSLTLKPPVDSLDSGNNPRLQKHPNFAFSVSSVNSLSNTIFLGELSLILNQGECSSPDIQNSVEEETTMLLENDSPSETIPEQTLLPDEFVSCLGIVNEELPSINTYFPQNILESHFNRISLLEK

[6] = pH 6.5 (100 mM phosphate buffer)
[7] = pH 7.4 (100 mM phosphate buffer)

Molecule: COc1ccc(C[C@@H]2NC(=O)[C@H](CCCNC(=N)N)NC(=O)[C@H](CCC(N)=O)NC(=O)[C@H](Cc3c[nH]c4ccccc34)NC(=O)[C@H]([C@@H](C)O)NC(=O)[C@H](CC(N)=O)NC(=O)[C@@H](NC(C)=O)CC(=O)NCCC[C@@H](C(=O)N[C@@H](CC(N)=O)C(=O)N[C@@H](CC(N)=O)C(N)=O)NC(=O)C(C)(C)NC(=O)[C@H](Cc3ccc4ccccc4c3)NC2=O)cc1 [compound 6] (Ac-DNTWQRY(Me)[2Nal][Aib][Orn]NN-NH2; lactam 1-10)
Conc. [mg/ml] 0 h ([1]; pH 1.2 (100 mM HCl)): 1.6 mg/mL
Conc. [mg/ml] 24 h 37° C. ([1]; pH 1.2 (100 mM HCl)): 1.1 mg/mL
Mass Balance [%] 24 h 37° C. ([1]; pH 1.2 (100 mM HCl)): −3.8%
Relative Purity Loss [%] 24 h 37° C. ([1]; pH 1.2 (100 mM HCl)): 27.3%
Conc. [mg/ml] 0 h [1, 6]: 1.4 mg/mL
Conc. [mg/ml] 24 h 37° C. [1, 6]: 1.3 mg/mL
Mass Balance [%] 24 h 37° C. [1, 6]: −1.4%
Relative Purity Loss [%] 24 h 37° C. [1, 6]: 0.6%
Conc. [mg/ml] 0 h [1, 7]: 1.4 mg/mL
Conc. [mg/ml] 24 h 37° C. [1, 7]: 1.3 mg/mL
Mass Balance [%] 24 h 37° C. [1, 7]: −4.8%
Relative Purity Loss [%] 24 h 37° C. [1, 7]: 1.4%
IC50 [2]: 1.96 nM
IC50 [3]: 366 nM

B1: peptide compound SEQ ID NO: 27 (peptide)
peptide: Ac-[dOrn]NTWQR[Tyr(Me)][2Nal][Aib]DNN-NH2
modifications: lactam 1-10
SMILES: COc1ccc(C[C@@H]2NC(=O)[C@H](CCCNC(=N)N)NC(=O)[C@H](CCC(N)=O)NC(=O)[C@H](Cc3c[nH]c4ccccc34)NC(=O)[C@H]([C@@H](C)O)NC(=O)[C@H](CC(N)=O)NC(=O)[C@H](NC(C)=O)CCCNC(=O)C[C@@H](C(=O)N[C@@H](CC(N)=O)C(=O)N[C@@H](CC(N)=O)C(N)=O)NC(=O)C(C)(C)NC(=O)[C@H](Cc3ccc4ccccc4c3)NC2=O)cc1
IC50 [4]: 19.7 nM

B2: peptide compound SEQ ID NO: 40 (peptide)
peptide: [Ahx]NTWQ[Agb][Phe(4-OMe)][2Nal][Aib]ENN-NH2
modifications: lactam N-10
SMILES: COc1ccc(C[C@@H]2NC(=O)[C@H](CCNC(=N)N)NC(=O)[C@H](CCC(N)=O)NC(=O)[C@H](Cc3c[nH]c4ccccc34)NC(=O)[C@H]([C@@H](C)O)NC(=O)[C@H](CC(N)=O)NC(=O)CCCCCNC(=O)CC[C@@H](C(=O)N[C@@H](CC(N)=O)C(=O)N[C@@H](CC(N)=O)C(N)=O)NC(=O)C(C)(C)NC(=O)[C@H](Cc3ccc4ccccc4c3)NC2=O)cc1
IC50 [4]: 3.11 nM

B3: peptide compound SEQ ID NO: 39 (peptide)
peptide: Ac-[dK]NTWQ[Agb][Phe(4-OMe)][2Nal][Aib]DNN-NH2
modifications: lactam 1-10
SMILES: COc1ccc(C[C@@H]2NC(=O)[C@H](CCNC(=N)N)NC(=O)[C@H](CCC(N)=O)NC(=O)[C@H](Cc3c[nH]c4ccccc34)NC(=O)[C@H]([C@@H](C)O)NC(=O)[C@H](CC(N)=O)NC(=O)[C@H](NC(C)=O)CCCCNC(=O)C[C@@H](C(=O)N[C@@H](CC(N)=O)C(=O)N[C@@H](CC(N)=O)C(N)=O)NC(=O)C(C)(C)NC(=O)[C@H](Cc3ccc4ccccc4c3)NC2=O)cc1
IC50 [4]: 1.46 nM

B6: peptide compound SEQ ID NO: 47 (peptide)
peptide: Ac-[dK]NTWQA[Tyr(Me)″][2Nal]RDNN-NH2
modifications: lactam 1-10
SMILES: COc1ccc(C[C@@H]2NC(=O)[C@H](C)NC(=O)[C@H](CCC(N)=O)NC(=O)[C@H](Cc3c[nH]c4ccccc34)NC(=O)[C@H]([C@@H](C)O)NC(=O)[C@H](CC(N)=O)NC(=O)[C@H](NC(C)=O)CCCCNC(=O)C[C@@H](C(=O)N[C@@H](CC(N)=O)C(=O)N[C@@H](CC(N)=O)C(N)=O)NC(=O)[C@H](CCCNC(=N)N)NC(=O)[C@H](Cc3ccc4ccccc4c3)NC2=O)cc1
notes: synthetic macrolactam
IC50 [4]: 1.34 nM

B7: peptide compound SEQ ID NO: 51 (peptide)
peptide: Ac-[dK]NTWQA[Phe(4-OMe)][2Nal][Thp]DNN-NH2
modifications: lactam 1-10
SMILES: COc1ccc(C[C@@H]2NC(=O)[C@H](C)NC(=O)[C@H](CCC(N)=O)NC(=O)[C@H](Cc3c[nH]c4ccccc34)NC(=O)[C@H]([C@@H](C)O)NC(=O)[C@H](CC(N)=O)NC(=O)[C@H](NC(C)=O)CCCCNC(=O)C[C@@H](C(=O)N[C@@H](CC(N)=O)C(=O)N[C@@H](CC(N)=O)C(N)=O)NC(=O)C3(CCOCC3)NC(=O)[C@H](Cc3ccc4ccccc4c3)NC2=O)cc1
IC50 [4]: 0.78 nM

Next, values leading:

Inhibition of IL-23 induced pSTAT3 (IC50 nM) [5]: 9280 nM
IC50 [4]: 18.9 nM
B4: peptide compound SEQ ID NO: 11 (peptide)
peptide: Ac-[dD]NTWQR[Tyr(Me)][1Nal][Aib]KNN-NH2
modifications: lactam 1-10
SMILES: COc1ccc(C[C@@H]2NC(=O)[C@H](CCCNC(=N)N)NC(=O)[C@H](CCC(N)=O)NC(=O)[C@H](Cc3c[nH]c4ccccc34)NC(=O)[C@H]([C@@H](C)O)NC(=O)[C@H](CC(N)=O)NC(=O)[C@H](NC(C)=O)CC(=O)NCCCC[C@@H](C(=O)N[C@@H](CC(N)=O)C(=O)N[C@@H](CC(N)=O)C(N)=O)NC(=O)C(C)(C)NC(=O)[C@H](Cc3cccc4ccccc34)NC2=O)cc1

Inhibition of IL-23 induced pSTAT3 (IC50 nM) [5]: 8010 nM
IC50 [4]: 5.74 nM
B5: peptide compound SEQ ID NO: 16 (peptide)
peptide: Ac-[dK]NTWQR[Tyr(Me)][1Nal][Aib]ENN-NH2
modifications: lactam 1-10
SMILES: COc1ccc(C[C@@H]2NC(=O)[C@H](CCCNC(=N)N)NC(=O)[C@H](CCC(N)=O)NC(=O)[C@H](Cc3c[nH]c4ccccc34)NC(=O)[C@H]([C@@H](C)O)NC(=O)[C@H](CC(N)=O)NC(=O)[C@H](NC(C)=O)CCCCNC(=O)CC[C@@H](C(=O)N[C@@H](CC(N)=O)C(=O)N[C@@H](CC(N)=O)C(N)=O)NC(=O)C(C)(C)NC(=O)[C@H](Cc3cccc4ccccc34)NC2=O)cc1
